Reference: patent US20010020002A1, “Androgen activity antagonists as therapies for anorexia, anorexia nervosa and disorders characterized by a pathologically underweight condition” (VELA PHARMACEUTICALS INC., priority 1997, published 2001)

Tests used:
[1] = in vivo; cited from earlier work
[2] = Example 1: flutamide therapy of a patient with anorexia nervosa; format: in vivo, human; settings: person with AN, 250 mg daily, follow-up in one week
Protocol: The dose of flutamide is increased to 500 mg daily (250 mg twice a day). They then return every month for an assessment of their symptomatology using the Yale-Brown-Cornell Eating Disorder Scale (YBC-EDS).

[3] = Example 5: flutamide therapy of cachexia in an AIDS patient; format: in vivo, human; settings: person with AIDS, 750 mg daily in three divided doses

Row | SMILES | half-life [1] | tolerability of therapy [2] | initial side effects [3] | tolerability of therapy [3]
1 | CC1(C)NC(=O)N(c2ccc([N+](=O)[O-])c(C(F)(F)F)c2)C1=O [Nilutamide, nilutamide] | 40 h |  |  | 
2 | CC(C)C(=O)Nc1ccc([N+](=O)[O-])c(C(F)(F)F)c1 [flutamide] | 5.2 h | tolerated the therapy well | initial problems with diarrhea and breast tenderness | tolerated well
